Measurements taken from US10798941B2, “Microbiocidal oxadiazole derivatives” (SYNGENTA PARTICIPATIONS AG, priority 2016, dated 2020).

Tests used:
[1] = test system: Puccinia recondita f. Sp. Tritici; assay: Puccinia recondita f. sp. tritici / wheat / leaf disc preventative (brown rust); assay type: in vivo; details: foliar, 168 h, 200 ppm in the applied formulation, wheat leaf segments cv. Kanzler, preventative, inoculated 1 day after application, assessed 7 to 9 days after application, vs untreated, read-out: disease control
Procedure, shortened: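 Preventative leaf-segment test: spray application of diluted formulated compound on wheat cv. Kanzler, spore inoculation after 1 day. Percent control relative to untreated segments rated 7 to 9 days post-application, with incubation at 19° C, 75% relative humidity, 12 h photoperiod.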

[2] = test system: Puccinia recondita f. Sp. Tritici; assay: Puccinia recondita f. sp. tritici / wheat / leaf disc curative (brown rust); assay type: in vivo; details: foliar, 144 h, 200 ppm in the applied formulation, wheat leaf segments cv. Kanzler, applied 1 day after inoculation, assessed 6 to 8 days after application, vs untreated, read-out: disease control
Procedure, shortened: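 Compound applied 1 day after spore inoculation of wheat cv. Kanzler leaf segments on agar (dark, 19 °C, 75% RH before treatment). After further incubation under 12 h light/12 h dark at 19 °C and 75% RH, disease control relative to untreated segments rated 6–8 days post-application.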

Phakopsora pachyrhizi = Phakopsora pachyrhizi / soybean / leaf disc preventative (Asian soybean rust); assay type: in vivo; details: foliar, 288 h, 200 ppm in the applied formulation, soybean leaf disks, inoculated one day after application, assessed 12 to 14 days after application, vs untreated, read-out: disease control
Procedure, shortened: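 Read-out is percent disease control relative to untreated check discs, assessed once untreated discs show adequate disease, 12 to 14 days after application. Compounds, tested at 200 ppm in the applied formulation, are sprayed onto soybean leaf discs one day before inoculation with a spore suspension.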

[3] = test system: Glomerella Lagenarium (Colletotrichum Lagenarium); assay: Glomerella lagenarium (Colletotrichum lagenarium) liquid culture / cucumber / preventative (anthracnose); assay type: cell-based; details: Colletotrichum orbiculare; 20 ppm in the applied formulation; liquid culture in PDB, 24° C., inhibition of growth measured photometrically 3 to 4 days after application, vs untreated; read-out: disease control
Procedure, shortened: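 Conidia from cryogenic storage were mixed into potato dextrose broth. This was added to compound diluted from DMSO into 0.025% Tween20, tested at 20 ppm. Plates were incubated in the dark at 24 °C and 96% relative humidity, and growth was read photometrically after 2–7 days as % activity versus untreated check.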

CCCSc1ncn(Cc2ccc(-c3noc(C(F)(F)F)n3)cc2)n1 [Compound 1.206, 3-[4-[(3-propylsulfanyl-1,2,4-triazol-1-yl)methyl]phenyl]-5-(trifluoromethyl)-1,2,4-oxadiazole]
≥ 80%: pest or weed control at 200 ppm [1] | pest or weed control at 200 ppm [2] | pest or weed control at 200 ppm (Phakopsora pachyrhizi) | inhibition of growth at 20 ppm [3]

CCCSc1ncnn1Cc1ccc(-c2noc(C(F)(F)F)n2)cc1 [Compound 1.207, 3-[4-[(5-propylsulfanyl-1,2,4-triazol-1-yl)methyl]phenyl]-5-(trifluoromethyl)-1,2,4-oxadiazole]
≥ 80%: pest or weed control at 200 ppm [1] | pest or weed control at 200 ppm [2] | pest or weed control at 200 ppm (Phakopsora pachyrhizi) | inhibition of growth at 20 ppm [3]

CCSc1ncn(Cc2ccc(-c3noc(C(F)(F)F)n3)cc2)n1 [Compound 1.208, 3-[4-[(3-ethylsulfanyl-1,2,4-triazol-1-yl)methyl]phenyl]-5-(trifluoromethyl)-1,2,4-oxadiazole]
≥ 80%: pest or weed control at 200 ppm [1] | pest or weed control at 200 ppm [2] | pest or weed control at 200 ppm (Phakopsora pachyrhizi) | inhibition of growth at 20 ppm [3]

FC(F)(F)c1nc(-c2ccc(Cn3cnnc3SCc3ccccc3)cc2)no1 [Compound 1.213, 3-[4-[(3-benzylsulfanyl-1,2,4-triazol-4-yl)methyl]phenyl]-5-(trifluoromethyl)-1,2,4-oxadiazole]
≥ 80%: pest or weed control at 200 ppm [1] | pest or weed control at 200 ppm [2] | pest or weed control at 200 ppm (Phakopsora pachyrhizi) | inhibition of growth at 20 ppm [3]

COc1nc(N)n(Cc2ccc(-c3noc(C(F)(F)F)n3)cc2)n1 [Compound 1.214, 5-methoxy-2-[[4-[5-(trifluoromethyl)-1,2,4-oxadiazol-3-yl]phenyl]methyl]-1,2,4-triazol-3-amine]
≥ 80%: pest or weed control at 200 ppm [1] | pest or weed control at 200 ppm [2] | pest or weed control at 200 ppm (Phakopsora pachyrhizi) | inhibition of growth at 20 ppm [3]

COc1nc(N)nn1Cc1ccc(-c2noc(C(F)(F)F)n2)cc1 [Compound 1.215, 5-methoxy-1-[[4-[5-(trifluoromethyl)-1,2,4-oxadiazol-3-yl]phenyl]methyl]-1,2,4-triazol-3-amine]
≥ 80%: pest or weed control at 200 ppm [1] | pest or weed control at 200 ppm [2] | pest or weed control at 200 ppm (Phakopsora pachyrhizi) | inhibition of growth at 20 ppm [3]

CCOC(=O)c1cccnc1-c1ccn(Cc2ccc(-c3noc(C(F)(F)F)n3)cc2)n1 [Compound 1.219, ethyl 2-[1-[[4-[5-(trifluoromethyl)-1,2,4-oxadiazol-3-yl]phenyl]methyl]pyrazol-3-yl]pyridine-3-carboxylate]
≥ 80%: pest or weed control at 200 ppm [1] | pest or weed control at 200 ppm [2] | pest or weed control at 200 ppm (Phakopsora pachyrhizi) | inhibition of growth at 20 ppm [3]

Nc1nc(C(F)F)nn1Cc1ccc(-c2noc(C(F)(F)F)n2)cc1 [Compound 1.222, 5-(difluoromethyl)-2-[[4-[5-(trifluoromethyl)-1,2,4-oxadiazol-3-yl]phenyl]methyl]-1,2,4-triazol-3-amine]
≥ 80%: pest or weed control at 200 ppm [1] | pest or weed control at 200 ppm [2] | pest or weed control at 200 ppm (Phakopsora pachyrhizi) | inhibition of growth at 20 ppm [3]

FC(F)(F)c1nc(-c2ccc(Cn3cnnc3)cc2)no1 [Compound 1.226, 3-[4-(1,2,4-triazol-4-ylmethyl)phenyl]-5-(trifluoromethyl)-1,2,4-oxadiazole]
≥ 80%: pest or weed control at 200 ppm [1] | pest or weed control at 200 ppm [2] | pest or weed control at 200 ppm (Phakopsora pachyrhizi) | inhibition of growth at 20 ppm [3]

FC(F)(F)c1nc(-c2ccc(Cn3cnc(-c4ccc(Cl)cc4)c3)cc2)no1 [Compound 1.229, 3-[4-[[4-(4-chlorophenyl)imidazol-1-yl]methyl]phenyl]-5-(trifluoromethyl)-1,2,4-oxadiazole]
≥ 80%: pest or weed control at 200 ppm [1] | pest or weed control at 200 ppm [2] | pest or weed control at 200 ppm (Phakopsora pachyrhizi) | inhibition of growth at 20 ppm [3]

COc1nc(Br)n(Cc2ccc(-c3noc(C(F)(F)F)n3)cc2)n1 [Compound 1.232, 3-[4-[(5-bromo-3-methoxy-1,2,4-triazol-1-yl)methyl]phenyl]-5-(trifluoromethyl)-1,2,4-oxadiazole]
≥ 80%: pest or weed control at 200 ppm [1] | pest or weed control at 200 ppm [2] | pest or weed control at 200 ppm (Phakopsora pachyrhizi) | inhibition of growth at 20 ppm [3]

COc1nc(Br)nn1Cc1ccc(-c2noc(C(F)(F)F)n2)cc1 [Compound 1.233, 3-[4-[(3-bromo-5-methoxy-1,2,4-triazol-1-yl)methyl]phenyl]-5-(trifluoromethyl)-1,2,4-oxadiazole]
≥ 80%: pest or weed control at 200 ppm [1] | pest or weed control at 200 ppm [2] | pest or weed control at 200 ppm (Phakopsora pachyrhizi) | inhibition of growth at 20 ppm [3]

COC(=O)c1cnn(Cc2ccc(-c3noc(C(F)(F)F)n3)cc2)c1C1CC1 [Compound 1.236, methyl 5-cyclopropyl-1-[[4-[5-(trifluoromethyl)-1,2,4-oxadiazol-3-yl]phenyl]methyl]pyrazole-4-carboxylate]
≥ 80%: pest or weed control at 200 ppm [1] | pest or weed control at 200 ppm [2] | pest or weed control at 200 ppm (Phakopsora pachyrhizi) | inhibition of growth at 20 ppm [3]

COC(=O)c1cn(Cc2ccc(-c3noc(C(F)(F)F)n3)cc2)nc1C1CC1 [Compound 1.237, methyl 3-cyclopropyl-1-[[4-[5-(trifluoromethyl)-1,2,4-oxadiazol-3-yl]phenyl]methyl]pyrazole-4-carboxylate]
≥ 80%: pest or weed control at 200 ppm [1] | pest or weed control at 200 ppm [2] | pest or weed control at 200 ppm (Phakopsora pachyrhizi) | inhibition of growth at 20 ppm [3]

COCc1nn(Cc2ccc(-c3noc(C(F)(F)F)n3)cc2)cc1C(=O)OC [Compound 1.238, methyl 3-(methoxymethyl)-1-[[4-[5-(trifluoromethyl)-1,2,4-oxadiazol-3-yl]phenyl]methyl]pyrazole-4-carboxylate]
≥ 80%: pest or weed control at 200 ppm [1] | pest or weed control at 200 ppm [2] | pest or weed control at 200 ppm (Phakopsora pachyrhizi) | inhibition of growth at 20 ppm [3]

COCc1c(C(=O)OC)cnn1Cc1ccc(-c2noc(C(F)(F)F)n2)cc1 [Compound 1.239, methyl 5-(methoxymethyl)-1-[[4-[5-(trifluoromethyl)-1,2,4-oxadiazol-3-yl]phenyl]methyl]pyrazole-4-carboxylate]
≥ 80%: pest or weed control at 200 ppm [1] | pest or weed control at 200 ppm [2] | pest or weed control at 200 ppm (Phakopsora pachyrhizi) | inhibition of growth at 20 ppm [3]

FC(F)(F)c1nc(-c2ccc(Cn3ccc(Cl)n3)cc2)no1 [Compound 1.243, 3-[4-[(3-chloropyrazol-1-yl)methyl]phenyl]-5-(trifluoromethyl)-1,2,4-oxadiazole]
≥ 80%: pest or weed control at 200 ppm [1] | pest or weed control at 200 ppm [2] | pest or weed control at 200 ppm (Phakopsora pachyrhizi) | inhibition of growth at 20 ppm [3]

FC(F)(F)c1nc(-c2ccc(Cn3cccc4nnnc3-4)cc2)no1 [Compound 1.244, 3-[4-(triazolo[4,5-b]pyridin-4-ylmethyl)phenyl]-5-(trifluoromethyl)-1,2,4-oxadiazole]
≥ 80%: pest or weed control at 200 ppm [1] | pest or weed control at 200 ppm [2] | pest or weed control at 200 ppm (Phakopsora pachyrhizi) | inhibition of growth at 20 ppm [3]

Cc1cc(C)n(Cc2ccc(-c3noc(C(F)(F)F)n3)c(F)c2)n1 [Compound 1.253, 3-[4-[(3,5-dimethylpyrazol-1-yl)methyl]-2-fluoro-phenyl]-5-(trifluoromethyl)-1,2,4-oxadiazole]
≥ 80%: pest or weed control at 200 ppm [1] | pest or weed control at 200 ppm [2] | pest or weed control at 200 ppm (Phakopsora pachyrhizi) | inhibition of growth at 20 ppm [3]

N#Cc1ncnn1Cc1ccc(-c2noc(C(F)(F)F)n2)c(F)c1 [Compound 1.256, 2-[[3-fluoro-4-[5-(trifluoromethyl)-1,2,4-oxadiazol-3-yl]phenyl]methyl]-1,2,4-triazole-3-carbonitrile]
≥ 80%: pest or weed control at 200 ppm [1] | pest or weed control at 200 ppm [2] | pest or weed control at 200 ppm (Phakopsora pachyrhizi) | inhibition of growth at 20 ppm [3]

CC(C)OC(=O)c1cnn(Cc2ccc(-c3noc(C(F)(F)F)n3)cc2)c1 [Compound 1.263, isopropyl 1-[[4-[5-(trifluoromethyl)-1,2,4-oxadiazol-3-yl]phenyl]methyl]pyrazole-4-carboxylate]
≥ 80%: pest or weed control at 200 ppm [1] | pest or weed control at 200 ppm [2] | pest or weed control at 200 ppm (Phakopsora pachyrhizi) | inhibition of growth at 20 ppm [3]

CC(C)ON=Cc1cnn(Cc2ccc(-c3noc(C(F)(F)F)n3)cc2)c1 [Compound 1.288, N-isopropoxy-1-[1-[[4-[5-(trifluoromethyl)-1,2,4-oxadiazol-3-yl]phenyl]methyl]pyrazol-4-yl]methanimine]
≥ 80%: pest or weed control at 200 ppm [1] | pest or weed control at 200 ppm [2] | pest or weed control at 200 ppm (Phakopsora pachyrhizi) | inhibition of growth at 20 ppm [3]

Cc1cc(C)n(C(C)c2ccc(-c3noc(C(F)(F)F)n3)cc2)n1 (centres unmarked) [Compound 1.303, 3-[4-[1-(3,5-dimethylpyrazol-1-yl)ethyl]phenyl]-5-(trifluoromethyl)-1,2,4-oxadiazole]
≥ 80%: pest or weed control at 200 ppm [1] | pest or weed control at 200 ppm [2] | pest or weed control at 200 ppm (Phakopsora pachyrhizi) | inhibition of growth at 20 ppm [3]
